Experimental data from US20230085307A1, “PYRIDAZINONE COMPOUND AND HERBICIDE” (NISSAN CHEMICAL CORPORATION, priority 2019, published 2023).

How the values were obtained:
redroot pigweed [1] = test: Test Example 5: herbicidal effect by foliage application, plastic box (Table 20, symbol N); format: in vivo, redroot pigweed (Amaranthus retroflexus); conditions: foliage application, 320 g/ha, evaluated three weeks after application
Procedure, shortened: (§1)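 Foliar spray test: emulsion formulation diluted in water to a set application rate, sprayed onto 14-day-old plants raised in diluvial soil at 25° C to 30° C under glass. Both herbicidal effect and crop effect rated visually three weeks later.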

oval-leafed pondweed = test: Test Example 1: herbicidal activity, application before weed generation under submerged conditions (Table 16, symbol C); format: in vivo, oval-leafed pondweed (Monochoria vaginalis); conditions: 320 g/ha applied herbicide
Procedure, shortened: (§2)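 Alluvial soil was flooded to 4 cm depth, weed seeds were sown mixed and 2.5-leaf rice seedlings were transplanted. On sowing day, the compound's emulsion, diluted in water to a set dose, was applied to the water surface. Plants grew at 25–30 °C and were scored 0–5 after three weeks.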

velvetleaf [2] = test: Test Example 4: herbicidal effect by soil treatment (Table 19, symbol M); format: in vivo, velvetleaf (Abutilon theophrasti); conditions: amount of applied herbicide 320 g/ha
Procedure, shortened: (§3)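 Herbicidal effect was rated 3 weeks after treatment, using the scoring criteria of an earlier test. The compound, formulated as an emulsion and diluted in water to a set herbicide amount, had been sprayed uniformly on soil over freshly sown seeds. Growth took place in a greenhouse at 25° C. to 30° C.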

green foxtail [3] = test: Test Example 4: herbicidal effect by soil treatment (Table 19, symbol G); format: in vivo, green foxtail (Setaria viridis); conditions: amount of applied herbicide 320 g/ha
Procedure, shortened: as §3

windgrass [4] = test: Test Example 4: herbicidal effect by soil treatment (Table 19, symbol L); format: in vivo, windgrass (Apera spica-venti); conditions: amount of applied herbicide 320 g/ha
Procedure, shortened: as §3

southern crabgrass [5] = test: Test Example 5: herbicidal effect by foliage application, plastic box (Table 20, symbol F); format: in vivo, southern crabgrass (Digitaria ciliaris); conditions: foliage application, 320 g/ha, evaluated three weeks after application
Procedure, shortened: as §1

Italian ryegrass [6] = test: Test Example 4: herbicidal effect by soil treatment (Table 19, symbol K); format: in vivo, Italian ryegrass (Lolium multiflorum); conditions: amount of applied herbicide 320 g/ha
Procedure, shortened: as §3

barnyard grass [7] = test: Test Example 4: herbicidal effect by soil treatment (Table 19, symbol H); format: in vivo, barnyard grass (Echinochloa crus-galli); conditions: amount of applied herbicide 320 g/ha
Procedure, shortened: as §3

lambsquarters [8] = test: Test Example 4: herbicidal effect by soil treatment (Table 19, symbol O); format: in vivo, lambsquarters (Chenopodium album); conditions: amount of applied herbicide 320 g/ha
Procedure, shortened: as §3

wild oat [9] = test: Test Example 4: herbicidal effect by soil treatment (Table 19, symbol I); format: in vivo, wild oat (Avena fatua); conditions: amount of applied herbicide 320 g/ha
Procedure, shortened: as §3

blackgrass = test: Test Example 5: herbicidal effect by foliage application, plastic box (Table 20, symbol J); format: in vivo, blackgrass (Alopecurus myosuroides); conditions: foliage application, 320 g/ha, evaluated three weeks after application
Procedure, shortened: as §1

southern crabgrass [10] = test: Test Example 4: herbicidal effect by soil treatment (Table 19, symbol F); format: in vivo, southern crabgrass (Digitaria ciliaris); conditions: amount of applied herbicide 320 g/ha
Procedure, shortened: as §3

redroot pigweed [11] = test: Test Example 4: herbicidal effect by soil treatment (Table 19, symbol N); format: in vivo, redroot pigweed (Amaranthus retroflexus); conditions: amount of applied herbicide 320 g/ha
Procedure, shortened: as §3

green foxtail [12] = test: Test Example 5: herbicidal effect by foliage application, plastic box (Table 20, symbol G); format: in vivo, green foxtail (Setaria viridis); conditions: foliage application, 320 g/ha, evaluated three weeks after application
Procedure, shortened: as §1

wild oat [13] = test: Test Example 5: herbicidal effect by foliage application, plastic box (Table 20, symbol I); format: in vivo, wild oat (Avena fatua); conditions: foliage application, 320 g/ha, evaluated three weeks after application
Procedure, shortened: as §1

rice flat sedge = test: Test Example 3: herbicidal effect by foliage application, Wagner pot (Table 18, symbol E); format: in vivo, rice flat sedge (Cyperus iria); conditions: amount of applied herbicide 320 g/ha
Procedure, shortened: (§4)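 Plants were sown in alluvial soil held under 0.1–0.5 cm standing water and grown 14 days in a greenhouse at 25–30 °C. An emulsifiable formulation, water-diluted to the set dose, was then sprayed onto the foliage, and effects were scored three weeks later using previously defined criteria.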

Chinese sprangletop = test: Test Example 3: herbicidal effect by foliage application, Wagner pot (Table 18, symbol D); format: in vivo, chinese sprangletop (Leptochloa chinensis); conditions: amount of applied herbicide 320 g/ha
Procedure, shortened: as §4

barnyard grass [14] = test: Test Example 3: herbicidal effect by foliage application, Wagner pot (Table 18, symbol H); format: in vivo, barnyard grass (Echinochloa crus-galli); conditions: amount of applied herbicide 320 g/ha
Procedure, shortened: as §4

lambsquarters [15] = test: Test Example 5: herbicidal effect by foliage application, plastic box (Table 20, symbol O); format: in vivo, lambsquarters (Chenopodium album); conditions: foliage application, 320 g/ha, evaluated three weeks after application
Procedure, shortened: as §1

persian speedwell [16] = test: Test Example 5: herbicidal effect by foliage application, plastic box (Table 20, symbol R); format: in vivo, Persian speedwell (Veronica persica); conditions: foliage application, 320 g/ha, evaluated three weeks after application
Procedure, shortened: as §1

chickweed [17] = test: Test Example 4: herbicidal effect by soil treatment (Table 19, symbol P); format: in vivo, common chickweed (Stellaria media); conditions: amount of applied herbicide 320 g/ha
Procedure, shortened: as §3

barnyard grass [18] = test: Test Example 5: herbicidal effect by foliage application, plastic box (Table 20, symbol H); format: in vivo, barnyard grass (Echinochloa crus-galli); conditions: foliage application, 320 g/ha, evaluated three weeks after application
Procedure, shortened: as §1

chickweed [19] = test: Test Example 5: herbicidal effect by foliage application, plastic box (Table 20, symbol P); format: in vivo, common chickweed (Stellaria media); conditions: foliage application, 320 g/ha, evaluated three weeks after application
Procedure, shortened: as §1

Japanese bulrush = test: Test Example 1: herbicidal activity, application before weed generation under submerged conditions (Table 16, symbol B); format: in vivo, Japanese bulrush (Schoenoplectus juncoides); conditions: 320 g/ha applied herbicide
Procedure, shortened: as §2

velvetleaf [20] = test: Test Example 5: herbicidal effect by foliage application, plastic box (Table 20, symbol M); format: in vivo, velvetleaf (Abutilon theophrasti); conditions: foliage application, 320 g/ha, evaluated three weeks after application
Procedure, shortened: as §1

persian speedwell [21] = test: Test Example 4: herbicidal effect by soil treatment (Table 19, symbol R); format: in vivo, Persian speedwell (Veronica persica); conditions: amount of applied herbicide 320 g/ha
Procedure, shortened: as §3

late watergrass = test: Test Example 1: herbicidal activity, application before weed generation under submerged conditions (Table 16, symbol A); format: in vivo, late watergrass (Echinochloa oryzicola); conditions: 320 g/ha applied herbicide
Procedure, shortened: as §2

Italian ryegrass [22] = test: Test Example 5: herbicidal effect by foliage application, plastic box (Table 20, symbol K); format: in vivo, Italian ryegrass (Lolium multiflorum); conditions: foliage application, 320 g/ha, evaluated three weeks after application
Procedure, shortened: as §1

windgrass [23] = test: Test Example 5: herbicidal effect by foliage application, plastic box (Table 20, symbol L); format: in vivo, windgrass (Apera spica-venti); conditions: foliage application, 320 g/ha, evaluated three weeks after application
Procedure, shortened: as §1

CCCC(=O)Oc1c(C)nn(C)c(=O)c1-c1c(-c2cccc(OC(F)(F)F)c2)sc2ccc(F)cc12 [2-237]
herbicidal effect on N: redroot pigweed (criteria 0-5) (redroot pigweed [1]): 5 (Herbicidal rate of 90% or more (almost completely withered)) | Herbicidal effect on C: oval-leafed pondweed (grade 0-5) (oval-leafed pondweed): 0 (Herbicidal rate of 5% or less (almost no effect)) | herbicidal effect on M: velvetleaf (velvetleaf [2]): 0 (Herbicidal rate of 5% or less (almost no effect)) | herbicidal effect on G: green foxtail (green foxtail [3]): 0 (Herbicidal rate of 5% or less (almost no effect)) | herbicidal effect on L: windgrass (windgrass [4]): 0 (Herbicidal rate of 5% or less (almost no effect)) | herbicidal effect on F: southern crabgrass (criteria 0-5) (southern crabgrass [5]): 0 (Herbicidal rate of 5% or less (almost no effect)) | herbicidal effect on K: Italian ryegrass (Italian ryegrass [6]): 0 (Herbicidal rate of 5% or less (almost no effect)) | herbicidal effect on H: barnyard grass (barnyard grass [7]): 0 (Herbicidal rate of 5% or less (almost no effect)) | herbicidal effect on O: lambsquarters (lambsquarters [8]): 0 (Herbicidal rate of 5% or less (almost no effect)) | herbicidal effect on I: wild oat (wild oat [9]): 0 (Herbicidal rate of 5% or less (almost no effect)) | herbicidal effect on J: blackgrass (criteria 0-5) (blackgrass): 0 (Herbicidal rate of 5% or less (almost no effect)) | herbicidal effect on F: southern crabgrass (southern crabgrass [10]): 0 (Herbicidal rate of 5% or less (almost no effect)) | herbicidal effect on N: redroot pigweed (redroot pigweed [11]): 0 (Herbicidal rate of 5% or less (almost no effect)) | herbicidal effect on G: green foxtail (criteria 0-5) (green foxtail [12]): 0 (Herbicidal rate of 5% or less (almost no effect)) | herbicidal effect on I: wild oat (criteria 0-5) (wild oat [13]): 0 (Herbicidal rate of 5% or less (almost no effect)) | herbicidal effect on E: rice flat sedge (rice flat sedge): 5 (Herbicidal rate of 90% or more (almost completely withered)) | herbicidal effect on D: Chinese sprangletop (Chinese sprangletop): 4 (Herbicidal rate of 70% or more and less than 90%) | herbicidal effect on H: barnyard grass (barnyard grass [14]): 3 (Herbicidal rate of 40% or more and less than 70%) | herbicidal effect on O: lambsquarters (criteria 0-5) (lambsquarters [15]): 2 (Herbicidal rate of 20% or more and less than 40%) | herbicidal effect on R: persian speedwell (criteria 0-5) (persian speedwell [16]): 3 (Herbicidal rate of 40% or more and less than 70%) | herbicidal effect on P: chickweed (chickweed [17]): 5 (Herbicidal rate of 90% or more (almost completely withered)) | herbicidal effect on H: barnyard grass (criteria 0-5) (barnyard grass [18]): 0 (Herbicidal rate of 5% or less (almost no effect)) | herbicidal effect on P: chickweed (criteria 0-5) (chickweed [19]): 5 (Herbicidal rate of 90% or more (almost completely withered)) | Herbicidal effect on B: Japanese bulrush (grade 0-5) (Japanese bulrush): 0 (Herbicidal rate of 5% or less (almost no effect)) | herbicidal effect on M: velvetleaf (criteria 0-5) (velvetleaf [20]): 3 (Herbicidal rate of 40% or more and less than 70%) | herbicidal effect on R: persian speedwell (persian speedwell [21]): 0 (Herbicidal rate of 5% or less (almost no effect)) | Herbicidal effect on A: late watergrass (grade 0-5) (late watergrass): 3 (Herbicidal rate of 40% or more and less than 70%) | herbicidal effect on K: Italian ryegrass (criteria 0-5) (Italian ryegrass [22]): 0 (Herbicidal rate of 5% or less (almost no effect)) | herbicidal effect on L: windgrass (criteria 0-5) (windgrass [23]): 0 (Herbicidal rate of 5% or less (almost no effect))
